A short description of data set [1]: Dissolution test (paddle blade method, 0.2% w/v sodium dodecylsulfate aqueous solution). Type of data set: physicochemical. Particulars: powder equal to 100 mg tolvaptan, paddle 100 rpm. The method, then: Q.S. (the amount is equal to 100 mg of tolvaptan) of the powder prepared in Examples 1-10, Comparative examples and the control (crystal material with a particle diameter distribution of 1400 μm and an average diameter of 83 μm) were added to the dissolution tester. 0.2% w/v sodium dodecylsulfate aqueous solution was used as the solvent. The dissolution test was performed using the paddle blade method with the rotation speed of 100 rpm. A sample was taken at 5 min, 10 min, 15 min, 20 min, 30 min, and 45 min to determine the absorbance and calculate the dissolution rate.
The determination of the dissolution rate (%) is as follows: dissolve a certain amount of tolvaptan in methanol; transfer 5 ml of the solution to a 100-ml volumetric flask and then dilute with 0.2% (w/v) sodium dodecylsulfate aqueous solution to give a 20 μg/ml standard solution; the absorbance of the standard solution and the sample solution was determined at wavelengths of 269 nm and 330 nm. The dissolution rate can be obtained by the ratio of the difference of the absorbance of standard solution and the control and the difference of the absorbance of the sample solution and control.

The conditions of data set [2]: white crystal or crystalline powder; cited from earlier work.

Each structure is given as a SMILES string.

As for `Cc1ccccc1C(=O)Nc1ccc(C(=O)N2CCC[C@@H](O)c3cc(Cl)ccc32)c(C)c1` [compound 1], the dissolution rate in data set [1] (5 min) was determined as 15.9%; in data set [1] (10 min) it was 19.1%; in data set [1] (15 min), 22.2%; in data set [1] (20 min), 25.8%; in data set [1] (30 min), 30.7%; in data set [1] (45 min), 42.8%.
On to `Cc1ccccc1C(=O)Nc1ccc(C(=O)N2CCC[C@@H](O)c3cc(Cl)ccc32)c(C)c1` [Tolvaptan, 7-chloro-5-hydroxy-1-[2-methyl-4-(2-methylbenzoylamino)benzoyl]-2,3,4,5,-tetrohydro-1H-benzoazepine], for which the solubility in water entry in data set [2] is “only slightly soluble in water”.

The values above are taken from patent US9408915B2, “Tolvaptan solid dispersion and its preparation method” (Jiangsu Hengrui Medicine Co., Ltd., priority 2010, dated 2016).
